Assay results taken from PubChem BioAssay (NCI).
Several values for one entry are separate records, joined by “and”; a condition that tells them apart may be missing. Equal entries are not always repeated.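 In this assay, cells in 96-well plates receive the compound at five concentrations for 48 hours. Endpoints are linearly interpolated between the surrounding concentrations. Here, GI50 denotes the concentration required for 50% inhibition of growth. At the TGI there is no net growth.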

Experiments:
Test in all cases: NCI anticancer screen, dose series, 48 h
SK-MEL-2 melanoma = test system: SK-MEL-2 melanoma
CCRF-CEM leukemia = test system: CCRF-CEM leukemia
UO-31 renal = test system: UO-31 renal
K-562 leukemia = test system: K-562 leukemia
SF-539 CNS = test system: SF-539 CNS
NCI-H522 lung = test system: NCI-H522 lung
SK-MEL-28 melanoma = test system: SK-MEL-28 melanoma
RPMI-8226 leukemia = test system: RPMI-8226 leukemia
MOLT-4 leukemia = test system: MOLT-4 leukemia
NCI/ADR-RES ovarian = test system: NCI/ADR-RES ovarian

Which TGI (SK-MEL-2 melanoma) does the source give for Cc1cccc(C(C)C)c1NC(=O)CC1Sc2ccccc2NC1=O (configuration not stated) here?
Its TGI is greater than 100 µM.

What about the TGI (CCRF-CEM leukemia) of the same compound?
The TGI was greater than 100 µM.

What about the TGI (UO-31 renal) of the same compound?
Its TGI is greater than 100 µM.

What about the TGI (K-562 leukemia) of the same compound?
Its TGI is greater than 100 µM.

What about the TGI (SF-539 CNS) of the same compound?
The TGI was greater than 100 µM.

What about the TGI (NCI-H522 lung) of the same compound?
The TGI was greater than 100 µM.

What about the TGI (SK-MEL-28 melanoma) of the same compound?
Its TGI is greater than 100 µM.

And the TGI (RPMI-8226 leukemia)?
Its TGI is greater than 100 µM.

And the TGI (MOLT-4 leukemia)?
The TGI was greater than 100 µM.

Which TGI (SK-MEL-2 melanoma) does the source give for O=C(CC(=O)c1ccccc1)CC(O)(c1ccccc1)c1ccccc1 here?
Its TGI is 22.2 µM.

And the TGI (CCRF-CEM leukemia)?
The TGI was 26 µM.

What about the TGI (UO-31 renal) of the same compound?
The TGI was 18.4 µM.

And the TGI (K-562 leukemia)?
The TGI was 33.4 µM.

And the TGI (NCI-H522 lung)?
Its TGI is 13.6 µM.

And the TGI (SK-MEL-28 melanoma)?
The TGI was 31.9 µM.

And the TGI (RPMI-8226 leukemia)?
The TGI was greater than 100 µM.

And the TGI (MOLT-4 leukemia)?
Its TGI is 42.8 µM.

What does the source list for COc1cc(/C=C/C(=O)O)ccc1C(=O)OCc1ccccc1?
TGI (SK-MEL-2 melanoma): > 100 µM; TGI (CCRF-CEM leukemia): > 100 µM; TGI (UO-31 renal): > 100 µM; TGI (K-562 leukemia): > 100 µM; TGI (SF-539 CNS): > 100 µM; TGI (NCI-H522 lung): > 100 µM; TGI (SK-MEL-28 melanoma): > 100 µM; TGI (NCI/ADR-RES ovarian): > 100 µM; TGI (RPMI-8226 leukemia): > 100 µM; TGI (MOLT-4 leukemia): > 100 µM

For CCOC(=O)c1csc(NC(=O)CN2CCN(C)CC2)n1, which TGI (SK-MEL-2 melanoma) is on record?
The TGI was greater than 100 µM.

What about the TGI (CCRF-CEM leukemia) of the same compound?
Its TGI is greater than 100 µM.

And the TGI (UO-31 renal)?
The TGI was greater than 100 µM.

What about the TGI (K-562 leukemia) of the same compound?
Its TGI is greater than 100 µM.

And the TGI (SK-MEL-28 melanoma)?
The TGI was greater than 100 µM.

And the TGI (NCI/ADR-RES ovarian)?
The TGI was greater than 100 µM.

And the TGI (RPMI-8226 leukemia)?
Its TGI is greater than 100 µM.

And the TGI (MOLT-4 leukemia)?
The TGI was greater than 100 µM.

Which results are given for CCCC(O)C(NC(=O)CCl)C(=O)O (configuration not stated)?
TGI (SK-MEL-2 melanoma): > 100 µM; TGI (CCRF-CEM leukemia): > 100 µM; TGI (UO-31 renal): > 100 µM; TGI (K-562 leukemia): > 100 µM; TGI (SF-539 CNS): > 100 µM; TGI (NCI-H522 lung): > 100 µM; TGI (SK-MEL-28 melanoma): > 100 µM; TGI (NCI/ADR-RES ovarian): > 100 µM; TGI (RPMI-8226 leukemia): > 100 µM; TGI (MOLT-4 leukemia): > 100 µM

CC(=O)Nc1ccc(-c2nc3ccccc3s2)cc1 was tested. Which TGI (SK-MEL-2 melanoma) did it give?
The TGI was greater than 100 µM.

And the TGI (CCRF-CEM leukemia)?
Its TGI is greater than 100 µM.

What about the TGI (UO-31 renal) of the same compound?
Its TGI is greater than 100 µM.

And the TGI (K-562 leukemia)?
The TGI was 77 µM.

And the TGI (SF-539 CNS)?
Its TGI is 67.1 µM.

And the TGI (SK-MEL-28 melanoma)?
Its TGI is greater than 100 µM.

And the TGI (NCI/ADR-RES ovarian)?
The TGI was greater than 100 µM.

What about the TGI (RPMI-8226 leukemia) of the same compound?
Its TGI is greater than 100 µM.

What about the TGI (MOLT-4 leukemia) of the same compound?
The TGI was greater than 100 µM.

How did the GI50 (SK-MEL-2 melanoma) turn out when CC12CCC3C(CCC4=CC(O)CCC43C=O)C1(O)CCC2c1ccc(=O)oc1 (configuration not stated) was run?
The GI50 was 0.05 µM.

What about the TGI (SK-MEL-2 melanoma) of the same compound?
The TGI was 0.0483 µM and 0.0815 µM.

What about the GI50 (CCRF-CEM leukemia) of the same compound?
Its GI50 is 0.0115 µM and 0.05 µM.

What about the TGI (CCRF-CEM leukemia) of the same compound?
Its TGI is 0.129 µM and 0.523 µM.

What about the GI50 (UO-31 renal) of the same compound?
The GI50 was 0.05 µM.

And the TGI (UO-31 renal)?
The TGI was 0.127 µM and 0.057 µM.

What about the GI50 (K-562 leukemia) of the same compound?
The GI50 was 0.0274 µM.

And the TGI (K-562 leukemia)?
Its TGI is 0.247 µM and 0.143 µM.

What about the GI50 (SF-539 CNS) of the same compound?
Its GI50 is 0.05 µM.

And the TGI (SF-539 CNS)?
Its TGI is 0.0115 µM and 0.0515 µM.

And the TGI (NCI-H522 lung)?
The TGI was 0.00741 µM.

And the GI50 (SK-MEL-28 melanoma)?
Its GI50 is 0.00766 µM.

And the TGI (SK-MEL-28 melanoma)?
The TGI was 0.14 µM and 0.104 µM.

And the GI50 (NCI/ADR-RES ovarian)?
Its GI50 is 0.05 µM.

And the TGI (NCI/ADR-RES ovarian)?
Its TGI is 0.196 µM and 0.0533 µM.

What about the GI50 (RPMI-8226 leukemia) of the same compound?
The GI50 was 0.0238 µM.

And the TGI (RPMI-8226 leukemia)?
Its TGI is 0.237 µM and 0.273 µM.

What about the GI50 (MOLT-4 leukemia) of the same compound?
The GI50 was 0.0129 µM.

What about the TGI (MOLT-4 leukemia) of the same compound?
The TGI was 0.0401 µM.

How did the TGI (SK-MEL-2 melanoma) turn out when COc1cc2c3c(c4cc(OC)c(OC)cc4c2cc1OC)C(=O)C1CCC(=O)N1C3 (configuration not stated) was run?
Its TGI is greater than 100 µM.

And the TGI (CCRF-CEM leukemia)?
Its TGI is 30.8 µM.

What about the TGI (K-562 leukemia) of the same compound?
Its TGI is greater than 100 µM.

And the TGI (SF-539 CNS)?
The TGI was 39.8 µM.

What about the TGI (NCI-H522 lung) of the same compound?
The TGI was 23.3 µM.

What about the TGI (SK-MEL-28 melanoma) of the same compound?
Its TGI is greater than 100 µM.

And the TGI (NCI/ADR-RES ovarian)?
Its TGI is greater than 100 µM.

And the TGI (RPMI-8226 leukemia)?
The TGI was greater than 100 µM.

What about the TGI (MOLT-4 leukemia) of the same compound?
The TGI was 37.5 µM.
